Where “and” joins values, the source holds several entries; their conditions need not be identical. Equal values may be shown once. Square brackets hold non-standard residues; d marks the D form. Peptide text beside a SMILES is read from it. * marks the point of attachment. Bpa = N[C@@H](Cc1ccc(C(=O)c2ccccc2)cc1)C(=O)O; hArg = N=C(N)NCCCC[C@H](N)C(=O)O; Nle = CCCC[C@H](N)C(=O)O; Abu = CC[C@H](N)C(=O)O; PhAc = O=C(Cc1ccccc1)*
Test system: hGH-RH(1-29)NH2 induced GH release
Experiment: Inhibition of GH release in superfused rat pituitary system
Type: cell-based
Details: for endocrine antagonistic potency: inhibition of the GH release stimulated by hGH-RH(1-29)NH2 (in words): general statement, in vitro and in vivo
Experimental: The analogs were tested in vitro in a test described earlier (S. Vigh and A. V Schally, Peptides 5:241-[…], 1984) with modification (Z. Rekasi and A. V. Schally, P.N.A.S. 90:2146-2149, 1993).
Briefly, the cells are preincubated with peptides for 9 minutes (3 mL) at various concentrations. Immediately after the incubation, 1 nM hGH-RH(1-29)NH2 is administered for 3 minutes (1 mL) 10 minute response). To check the duration of the antagonistic effect of the analogue, 1 nM hGH-RH(1-29)NH2 is applied 30, 60, 90, and 120 minutes later for 3 minutes [30, 60, 90, 120 min responses]. Net integral values of the GH responses are evaluated. GH responses are compared to and expressed as percent of the original GH response induced by 1 nM GH-RH(1-29)NH2 The effect of the new antagonists are compared to that of [Ac-Tyr^1, D-Arg^2]hGH-RH(1-29)NH2, the “Standard antagonist”.
Rat GH levels in aliquots of undiluted and diluted superfusion samples were measured by double-antibody radioimmunoassay using materials supplied by the National Hormone and Pituitary Program, Baltimore, Md. The results of RIA were analyzed with a computer program developed in our institute (V. Csernus and A. V. Schally, in Neuroendocrine Research Methods, Harwood Academic (Greenstein, B. D. ed., London, pp. 71-109, 1991), hereby incorporated by reference.

[1] = antagonist 30 nM, 1 nM hGH-RH(1-29)NH2 at 0 min
[2] = antagonist 30 nM, 1 nM hGH-RH(1-29)NH2 at 30 min
[3] = antagonist 30 nM, 1 nM hGH-RH(1-29)NH2 at 60 min
[4] = antagonist 30 nM, 1 nM hGH-RH(1-29)NH2 at 90 min
[5] = antagonist 30 nM, 1 nM hGH-RH(1-29)NH2 at 120 min

Row | Molecule | GH response (% of control) 0 min [1] | GH response (% of control) 30 min [2] | GH response (% of control) 60 min [3] | GH response (% of control) 90 min [4] | GH response (% of control) 120 min [5] | GH response (% of control) 0 min (antagonist 10 nM, 0 min) | GH response (% of control) 30 min (antagonist 10 nM, 30 min) | GH response (% of control) 60 min (antagonist 10 nM, 60 min) | GH response (% of control) 90 min (antagonist 10 nM, 90 min) | GH response (% of control) 120 min (antagonist 10 nM, 120 min) | endocrine antagonistic potency: inhibition of the GH release stimulated by hGH-RH(1-29)NH2 (in words)
1 | [PhAc-Tyr^1, D-Arg^2, Phe(pCl)^6, Har^9, Tyr(Me)^10, Aib^15, Nle^27, D-Arg^28, Har^29]hGH-RH(1-29)NHEt [Peptide 49] | 83 % of control | 76 % of control | 90 % of control | 87 % of control | 120 % of control |  |  |  |  |  | 
2 | [Hca-Tyr^1, D-Arg^2, Phe(pCl)^6, Har^9, Tyr(Me)^10, Abu^15, Nle^27, D-Arg^28, Har^29]hGH-RH(1-29)NH2 [Peptide 45] | 91 % of control and 100 % of control | 100 % of control | 100 % of control | 100 % of control | 99 % of control |  |  |  |  |  | 
3 | [CH3(CH2)4CO-Tyr^1, D-Arg^2, Phe(pCl)^6, Arg^9, Abu^15, Nle^27, D-Arg^28, Har^29]hGH-RH(1-29)NH2 [Peptide 2] | 18 % of control | 13 % of control | 18 % of control | 25 % of control | 51 % of control |  |  |  |  |  | 
4 | [Ipa-Tyr^1, D-Arg^2, Phe(pCl)^6, Har^9, Tyr(Me)^10, Abu^15, Nle^27, D-Arg^28, Har^29, Har^30]hGH-RH(1-30)NH2 [Peptide 55] | 93 % of control | 63 % of control | 96 % of control | 61 % of control | 93 % of control |  |  |  |  |  | 
5 | [PhAc-Tyr^1, D-Arg^2, Phe(pCl)^6, Arg^9, Amp^10, Abu^15, Nle^27, D-Arg^28, Har^29]hGH-RH(1-29)NH2 [Peptide 30] | 18 % of control | 11 % of control | 7 % of control | 7 % of control | 8 % of control | 60 % of control | 24 % of control | 34 % of control | 32 % of control | 53 % of control | high endocrine antagonistic potencies
6 | [PhAc-Tyr^1, D-Arg^2, Phe(pCl)^6, Arg^9, Abu^15, Nle^27, Har^28, D-Arg^29, hGH-RH(1-29)NH2 [Peptide 15] | 28 % of control | 13 % of control | 11 % of control | 36 % of control | 21 % of control |  |  |  |  |  | 
7 | [CH3(CH2)14COD-Phe^0, D-Arg^2, Phe(pCl)^6, Arg^9, Abu^15, Nle^27, D-Arg^28, Har^29]hGH-RH(1-29)NH2 [Peptide 17] | 29 % of control | 51 % of control | 68 % of control | 73 % of control | 61 % of control |  |  |  |  |  | 
8 | [PhAc-Tyr^1, D-Arg^2, Phe(pCl)^6, Har^9, Tyr(Me)^10, Amp^11, Abu^15, Nle^27, D-Arg^28, Har^29]hGH-RH(1-29)NH2 [Peptide 64] | 59 % of control | 54 % of control | 70 % of control | 50 % of control | 56 % of control |  |  |  |  |  | 
9 | [PhAc-Tyr^1, D-Arg^2, Phe(pCl)^6, Har^9, Tyr(Me)^10, Abu^15, Nle^27, D-Arg^28, Agm^29]hGH-RH(1-29) [Peptide 52] | 86 % of control | 13 % of control | 45 % of control | 26 % of control | 55 % of control |  |  |  |  |  | 
10 | [PhAc-Tyr^1, D-Arg^2, Phe(pCl)^6, Har^9, 3-Pal^10, Abu^15, Nle^27, D-Arg^28, Har^29]hGH-RH(1-29)NH2 [Peptide 40] | 42 % of control | 29 % of control | 26 % of control | 36 % of control | 30 % of control |  |  |  |  |  | 
11 | [Hca-Tyr^1, D-Arg^2, Phe(pCl)^6, Har^9, Tyr(Me)^10, Abu^15, Nle^27, D-Arg^28, Har^29, D-Arg^30]hGH-RH(1-29)NH2 [Peptide 58] | 78 % of control and 94 % of control and 64 % of control | 53 % of control and 41 % of control | 56 % of control and 57 % of control and 59 % of control | 47 % of control and 64 % of control and 50 % of control | 64 % of control and 69 % of control |  |  |  |  |  | 
12 | [PhAc-Tyr^1, D-Arg^2, Phe(pCl)^6, Cit^8, Cit^9, Abu^15, Nle^27, Har^28, D-Arg^29]hGH-RH(1-29)NH2 [Peptide 24] | 56 % of control | 13 % of control | 18 % of control | 34 % of control | 60 % of control |  |  |  |  |  | 
13 | [PhAc-Tyr^1, D-Arg^2, Phe(pCl)^6, Cit^8, Arg^9, Abu^15, Nle^27, D-Arg^28, Har^29]hGH-RH(1-29)NH2 [Peptide 21] | 0 % of control | 13 % of control | 33 % of control | 43 % of control | 37 % of control |  |  |  |  |  | high endocrine antagonistic potencies
14 | [PhAc-Tyr^1, D-Arg^2, Phe(pCl)^6, Abu^8, Arg^9, Abu^15, Nle^27, D-Arg^28, Har^29]hGH-RH(1-29)NH2 [Peptide 27] | 19 % of control | 15 % of control | 23 % of control | 23 % of control | 61 % of control |  |  |  |  |  | 
15 | [PhAc-Tyr^1, D-Arg^2, Phe(pCl)^6, Har^9, Tyr(Me)^10, Har^11, Abu^15, Nle^27, D-Arg^28, Har^29]hGH-RH(1-29)NH2 [Peptide 63] | 53 % of control | 47 % of control | 49 % of control | 51 % of control |  |  |  |  |  |  | 
16 | CCCC[C@H](NC(=O)[C@@H](NC(=O)[C@H](CC(=O)O)NC(=O)[C@H](CCC(N)=O)NC(=O)[C@H](CC(C)C)NC(=O)[C@H](CC(C)C)NC(=O)[C@H](CCCCN)NC(=O)[C@H](CCCNC(=N)N)NC(=O)[C@H](C)NC(=O)[C@H](CO)NC(=O)[C@H](CC(C)C)NC(=O)[C@H](CCC(N)=O)NC(=O)[C@H](CC)NC(=O)[C@H](CC(C)C)NC(=O)[C@@H](NC(=O)[C@H](CCCCN)NC(=O)[C@H](CCCNC(=N)N)NC(=O)[C@H](Cc1ccc(C(=O)c2ccccc2)cc1)NC(=O)[C@H](CCCCNC(=N)N)NC(=O)[C@H](CC(N)=O)NC(=O)[C@@H](NC(=O)[C@H](Cc1ccc(O)cc1)NC(=O)[C@@H](NC(=O)[C@H](C)NC(=O)[C@H](CC(=O)O)NC(=O)[C@@H](CCCNC(=N)N)NC(=O)[C@H](Cc1c[nH]cn1)NC(=O)Cc1ccccc1)[C@@H](C)CC)[C@@H](C)O)C(C)C)[C@@H](C)CC)C(=O)N[C@H](CCCNC(=N)N)C(=O)N[C@@H](CCCCNC(=N)N)C(N)=O [Peptide 42, [PhAc-His^1, D-Arg^2, Tyr^6, Har^9, Bpa^10, Abu^15, Nle^27, D-Arg^28, Har^29]hGH-RH(1-29)NH2] (PhAc-H[dR]DAIYTN[hArg][Bpa]RKVL[Abu]QLSARKLLQDI[Nle][dR][hArg]-NH2) | 52 % of control | 7 % of control | 9 % of control | 8 % of control | 13 % of control |  |  |  |  |  | high endocrine antagonistic potencies
17 | [PhAc-Tyr^1, D-Arg^2, Phe(pCl)^6, Amp^9, Abu^15, Nle^27, D-Arg^28, Har^29]hGH-RH(1-29)NH2 [Peptide 68] | 37 % of control | 22 % of control | 33 % of control | 29 % of control | 33 % of control |  |  |  |  |  | 
